In patent US20110288052A1, “NOVEL COMPOUNDS, PHARMACEUTICAL COMPOSITIONS CONTAINING SAME, AND METHODS OF USE FOR SAME” (priority 2008, published 2011):
≈ marks a conversion by molar mass, not a printed value. Read-outs that look alike come from different tables or passages of the source.

What was measured:
[1] = system: MCF-7 human breast cancer cells; assay: XTT cytotoxicity assay, MCF-7 (M); type: cell-based; settings: MCF7, MCF-7, 72 hours
Description: XTT Cytotoxicity Assay The XTT assay is a non-radioactive alternative for the [^51Cr] release cytotoxicity assay. XTT is a tetrazolium salt that is reduced to a formazan dye only by metabolically active, viable cells. The reduction of XTT is measured spectrophotometrically as OD490-OD650. To measure the cytotoxicity of specific compounds against cancer cells, 9×10^3 MCF-7 human breast cancer cells (shown in the tables as “(M)”), obtained from the American Type Culture Collection are plated per well in 96 well plates in DMEM medium with 10% fetal bovine serum, insulin, penicillin, and streptomycin. Following overnight culture at 37° C. and 5% CO2, the compounds to be tested, dissolved in DMSO, are added to the wells in 1 μl volume at the following concentrations: 80, 40, 20, 10, 5, 2.5, 1.25, and 0.625 μg/ml in triplicate. Additional concentrations are tested if required. 1 μl of DMSO is added to triplicate wells are the vehicle control. C75 is run at 40, 20, […], and 5 μg/ml in triplicate as positive controls. After 72 hours of incubation, cells are incubated for 4 hours with the XTT reagent as per manufacturer's instructions (Cell Proliferation Kit II (XTT) Roche). Plates are read at OD490 and OD650 on a Molecular Devices SpectraMax Plus Spectrophotometer. Three wells containing the XTT reagent without cells serve as the plate blank. XTT data are reported as OD490-OD650. Averages and standard error of the mean are computed using SOFTmax Pro software (Molecular Dynamics). The IC50 for the compounds is defined as the concentration of drug leading to a 50% reduction in OD490-OD650 compared to controls. The OD490-OD650 are computed by the SOFTmax PRO software (Molecular Devices) for each compound concentration. IC50 is calculated by linear regression, plotting the FAS activity as percent of control versus drug concentrations. Linear regression, best-fit line, r^2, and 95% confidence intervals are determined using Prism Version 3.0 (Graph Pad Software).

[2] = system: HCT116 cells; assay: XTT cytotoxicity assay, HCT116 (H); type: cell-based; settings: Homo sapiens, HCT-116
Description: (§1) XTT Cytotoxicity Assay The XTT assay is a non-radioactive alternative for the [^51Cr] release cytotoxicity assay. XTT is a tetrazolium salt that is reduced to a formazan dye only by metabolically active, viable cells. The reduction of XTT is measured spectrophotometrically as OD490-OD650. To measure the cytotoxicity of specific compounds against cancer cells, 9×10^3 MCF-7 human breast cancer cells (shown in the tables as “(M)”), obtained from the American Type Culture Collection are plated per well in 96 well plates in DMEM medium with 10% fetal bovine serum, insulin, penicillin, and streptomycin. Following overnight culture at 37° C. and 5% CO2, the compounds to be tested, dissolved in DMSO, are added to the wells in 1 μl volume at the following concentrations: 80, 40, 20, 10, 5, 2.5, 1.25, and 0.625 μg/ml in triplicate. Additional concentrations are tested if required. 1 μl of DMSO is added to triplicate wells are the vehicle control. C75 is run at 40, 20, […], and 5 μg/ml in triplicate as positive controls. After 72 hours of incubation, cells are incubated for 4 hours with the XTT reagent as per manufacturer's instructions (Cell Proliferation Kit II (XTT) Roche). Plates are read at OD490 and OD650 on a Molecular Devices SpectraMax Plus Spectrophotometer. Three wells containing the XTT reagent without cells serve as the plate blank. XTT data are reported as OD490-OD650. Averages and standard error of the mean are computed using SOFTmax Pro software (Molecular Dynamics). The IC50 for the compounds is defined as the concentration of drug leading to a 50% reduction in OD490-OD650 compared to controls. The OD490-OD650 are computed by the SOFTmax PRO software (Molecular Devices) for each compound concentration. IC50 is calculated by linear regression, plotting the FAS activity as percent of control versus drug concentrations. Linear regression, best-fit line, r^2, and 95% confidence intervals are determined using Prism Version 3.0 (Graph Pad Software). The test was also run against OVCAR3 cells (“OV”), and HCT116 cells (“H”).

[3] = system: OVCAR3 cells; assay: XTT cytotoxicity assay, OVCAR3 (OV); type: cell-based; settings: Homo sapiens
Description: as §1

[4] = Solubility problem noted during the assays; type: physicochemical; settings: read-out: Sol Prob (solubility problem at concentration)
[5] = system: MCF-7 human breast cancer cells (fatty acid synthesis pathway activity); assay: [14C]acetate incorporation into total lipids; type: cell-based; settings: MCF7, [14C]acetate incorporation into lipids
Description: Measurement of [^14C]acetate Incorporation into Total Lipids and Determination of IC50 of Compounds. This assay measures the incorporation of [^14C]acetate into total lipids and is a measure of fatty acid synthesis pathway activity in vitro. It is utilized to measure inhibition of fatty acid synthesis in vitro.
MCF-7 human breast cancer cells cultured as above, are plated at 5×10^4 cells per well in 24-well plates. Following overnight incubation, the compounds to be tested, solubilized in DMSO, are added at 5, 10, and 20 μg/ml in triplicate, with lower concentrations tested if necessary. DMSO is added to triplicate wells for a vehicle control. C75 is run at 5 and 10 μg/ml in triplicate as positive controls. After 4 hours of incubation, 0.25 μCi of [^14C]acetate (10 μl volume) is added to each well.
After 2 hours of additional incubation, medium is aspirated from the wells and 800 μl of chloroform:methanol (2:1) and 700 μl of 4 mM MgCl2 is added to each well. Contents of each well are transferred to 1.5 Eppendorf tubes, and spun at full-speed for 2 minutes in a high-speed Eppendorf Microcentrifuge 5415D. After removal of the aqueous (upper) layer, an additional 700 μl of chloroform:methanol (2:1) and 500 μl of 4 mM MgCl2 are added to each tube and then centrifuged for 1 minutes as above. The aqueous layer is removed with a Pasteur pipette and discarded. An additional 400 μl of chloroform:methanol (2:1) and 200 μl of 4 mM MgCl2 are added to each tube, then centrifuged and aqueous layer is discarded. The lower (organic) phase is transferred into a scintillation vial and dried at 40° C. under N2 gas. Once dried, 3 ml of scintillant (APB #NBC5104) is added and vials are counted for ^14C. The Beckman Scintillation counter calculates the average cpm values for triplicates.
The IC50 for the compounds is defined as the concentration of drug leading to a 50% reduction in [^14C]acetate incorporation into lipids compared to controls. This is determined by plotting the average cpm for each inhibitor concentration tested, performing linear regression and computing the best-fit line, r^2 values, and 95% confidence intervals. The average cpm values are computed by the Beckman scintillation counter (Model LS6500) for each compound concentration. Computation of linear regression, best-fit line, r^2, and 95% confidence intervals are calculated using Prism Version 3.0 (Graph Pad Software).

[6] = system: MCF-7 human breast cancer cells (fatty acid oxidation pathway activity); assay: Fatty acid oxidation ([14C]palmitate to acid soluble products); type: cell-based
Description: Measurement of Fatty Acid Oxidation and Determination of SC150 of Compounds This assay measures the degradation of [^14C]palmitate into acid soluble products and is a measure of fatty acid oxidation pathway activity in vitro. It is utilized to measure fatty acid oxidation in vitro. MCF-7 human breast cancer cells cultured as above, are plated at 2.5×10^5 cells per well in 24-well plates. Following overnight incubation, the compounds to be tested, solubilized in DMSO, are added at […], 0.39, 1.56, 6.25, 25, and 100 μg/ml in triplicate, with lower concentrations tested if necessary. DMSO is added to triplicate wells for a vehicle control. C75 is run at 5 and 10 μg/ml in triplicate as positive controls. After 1 hour of incubation, medium is removed 100 uM of [^14C] palmitate in cyclodextran and 200 uM carnitine in serum free medium (250 μl volume) is added to each well. After 30 minutes of additional incubation, the reaction is stopped by addition of 2.6N HClO4. Contents of each well are transferred to 1.5 ml Eppendorf tubes and 4N KOH is added. The tubes are incubated for 30 minutes at 60° C. 1 M NaAcetate and 3N H2SO4 is added to each tube and vortexed. The tubes are centrifuged at 1000 rpm for 5 minutes at RT. 250 μl of the supernatant is transferred to a 2 ml eppendorf tube. To each tube is added: 938 μl of chloroform:methanol (1:1), 468 μl chloroform and 281 μl of deionized water. The tubes are vortexed and centrifuged at 1000 rpm for 5 minutes at RT. 750 μl of the upper phase is transferred into a scintillation vial 5 ml of scintillant is added and vials are counted for 1 minute for ^14C. The Beckman Scintillation counter calculates the average cpm values for triplicates. The SC150 for the compounds is defined as the concentration of drug leading to a 150% increase in production of acid soluble products of [^14C] palmitate as compared to untreated controls. This is determined by plotting the average cpm for each inhibitor concentration tested, performing linear regression and computing the best-fit line, r^2 values, and 95% confidence intervals. The average cpm values are computed by the Beckman scintillation counter (Model LS6500) for each compound concentration. Computation of linear regression, best-fit line, r^2, and 95% confidence intervals are calculated using Prism Version 3.0 (Graph Pad Software). If a compound fails to achieve this 150% threshold it is considered negative. The maximum value achieved is also reported (FAO Max).

CCCCCCCCC1(C)SC(=O)C=C1OCC(=O)Nc1ccc(C(N)=O)cc1 (centres unmarked)
IC50 [1]: 10.2 µg/mL (≈ 24.4 µM) | IC50 [2]: 10.6 µg/mL (≈ 25.3 µM) | IC50 ([3]; OVCAR-3): 21.5 µg/mL (≈ 51.4 µM) | solubility [4]: 80 µg/mL (≈ 191 µM) | IC50 [5]: 12.3 µg/mL (≈ 29.4 µM)

CCCCCCCCC1(C)SC(=O)C=C1OCC(=O)Nc1ccc(C#N)cc1 (centres unmarked)
IC50 [1]: 3.8 µg/mL (≈ 9.49 µM) | IC50 [2]: 5.3 µg/mL (≈ 13.2 µM) | IC50 ([3]; OVCAR-3): 6.6 µg/mL (≈ 16.5 µM) | solubility [4]: 80 µg/mL (≈ 200 µM) | IC50 [5]: > 80 µg/mL

CCCCCCCCC1(C)SC(=O)C=C1OCC(=O)Nc1ccc(C(=O)OC)cc1 (centres unmarked)
IC50 [1]: 6.5 µg/mL (≈ 15 µM) | Emax at 6.25 µg/mL ([6]; Homo sapiens, MCF7, at 6.25 μg/ml, read-out: FAO Max): 126% | FAO SC 150 ([6]; concentration leading to 150% of control acid soluble products, Neg = threshold not reached): Neg | IC50 [2]: 6.3 µg/mL (≈ 14.5 µM) | IC50 ([3]; OVCAR-3, unit given as ml): 12.7 µg/mL (≈ 29.3 µM) | solubility ([4]; noted under the 14C column, unit inferred): 80 µg/mL (≈ 185 µM)

CCCCCCCCC1(C)SC(=O)C=C1OCC(=O)N1CCN(c2ccc(OC)cc2)CC1 (centres unmarked)
IC50 [1]: > 80 µg/mL | Emax at 0.098 µg/mL ([6]; Homo sapiens, MCF7, at 0.098 μg/ml, read-out: FAO Max): 53% | IC50 [2]: > 80 µg/mL | IC50 ([3]; OVCAR-3): > 80 µg/mL
